# Results as given in patent publication US20260060964A1, “METHODS AND COMPOSITIONS FOR TREATING SEPSIS” (Antivirus Therapeutics, priority 2021, published 2026).
# How the values were obtained:
# [1] = safety analysis: adverse events in enrolled neonates; format: in vivo, human
# Method: (§1) A 2:1 study drug: placebo randomization with randomly permuted block sizes was used. Randomization codes were accessible only to biostatistical personnel at the coordinating center. Subjects initially received 5.0 mg/kg/dose of a 40 mg/mL liquid formulation of pleconaril (ViroPharma, Inc.; Exton, PA) or matching placebo identical in composition except lacking active study drug. The liquid formulation expired on May 31, 2002, after which the formulation was changed by the manufacturer to a 40 mg/mL suspension. Subjects received 8.5 mg/kg/dose of pleconaril suspension (shown to provide similar drug exposure as 5.0 mg/kg/dose of pleconaril liquid) or matching placebo. Both pleconaril formulations and matching placebos were administered every 8 hours×7 days in 1.0 mL of breast milk or formula by mouth or orogastric tube and were given to subjects who were otherwise NPO. Subjects were permitted to receive antibiotics, acyclovir, cardiotropic medications, and IVIG. Subjects for whom an etiology for illness other than EV infection was documented after enrollment had study drug/placebo discontinued. […]
# (§2) Specimens for EV culture and polymerase chain reaction (PCR) were obtained from the oropharynx, rectum, urine, and serum on days 1-5, 7, 10, and 14. […] Adverse events were recorded at each evaluation, and relationship to study treatment was determined by site investigators.
# [2] = system: neonatal enterovirus infections; assay: clinical efficacy: survival of neonates with suspected enterovirus sepsis, placebo-controlled study; format: in vivo, human
# Description: (§3) Sixty-one subjects were enrolled; 43 randomized to the treatment group and 18 to the placebo group (FIG. 1). Of these, 43 (70%) were confirmed EV-positive: 31 in the treatment group and 12 in the placebo group. The study was terminated prior to full accrual due to expiration of study drug. […] 8/18 (44%) in the placebo group and lost-to-follow-up in 9/43 (21%) subjects in the treatment group v. 1/18 (6%) in the placebo group. Neonates with suspected EV sepsis (hepatitis, coagulopathy, and/or myocarditis) were enrolled at 19 centers from June 1999-December 2010.
# (§4) A 2:1 study drug: placebo randomization with randomly permuted block sizes was used. Randomization codes were accessible only to biostatistical personnel at the coordinating center. Subjects initially received 5.0 mg/kg/dose of a 40 mg/mL liquid formulation of pleconaril (ViroPharma, Inc.; Exton, PA) or matching placebo identical in composition except lacking active study drug. The liquid formulation expired on May 31, 2002, after which the formulation was changed by the manufacturer to a 40 mg/mL suspension. Subjects received 8.5 mg/kg/dose of pleconaril suspension (shown to provide similar drug exposure as 5.0 mg/kg/dose of pleconaril liquid) or matching placebo. Both pleconaril formulations and matching placebos were administered every 8 hours×7 days in 1.0 mL of breast milk or formula by mouth or orogastric tube and were given to subjects who were otherwise NPO. Subjects were permitted to receive antibiotics, acyclovir, cardiotropic medications, and IVIG. Subjects for whom an etiology for illness other than EV infection was documented after enrollment had study drug/placebo discontinued.
# (§5) A target sample size of 45 subjects with confirmed EV disease, with an expectation that approximately 67% of enrolled subjects would be confirmed to be EV-infected, was chosen to provide sufficient power to detect a reduction in viral shedding from the oropharynx from 96% to 70% on day 5. EV-confirmed subjects (culture- or PCR-positive) were included in virologic and clinical efficacy analyses, all enrolled subjects were included in safety analyses, and pleconaril recipients for whom pharmacokinetic data were obtained (whether or not EV-infected) were included in pharmacokinetic analyses. Survival analyses were conducted on the total enrolled cohort and on EV-confirmed subjects.
# (§6) Fisher's Exact Test was utilized for comparisons of categorical factors and the Kruskal-Wallis and Mann Whitney Tests for continuous factors, with medians and ranges presented. Kaplan-Meier curves and log-rank statistics were utilized to assess differences in duration of culture and PCR positivity and survival between study groups. Changes in toxicity grades from baseline and adverse event rates were compared by chi-square tests.
# (§7) The primary endpoint was the percentage of patients with a positive viral culture from the oropharynx five days after beginning study drug. Secondary endpoints included duration of culture positivity from oropharynx, rectum, urine and serum; changes in laboratory values reflecting resolution or progression of EV disease or drug toxicity; duration of hospitalization; time to resolution of organ abnormalities; survival; and pleconaril pharmacokinetics. Tertiary endpoints included duration of blood product (fresh frozen plasma, packed red blood cells, platelets, other products) and inotropic support.
# [3] = system: human respiratory picornavirus; details: nasal thixotropic formulation, 12 mg per day nasal spray v. 400 mg oral dose; cited from earlier work
# CYP 3A = details: oral delivery at 200-400 mg dose level; cited from earlier work
# [4] = 25° C.; cited from earlier work
# [5] = plasma pharmacokinetics in neonates; format: in vivo, human; details: on D1
# Method: as §1, §2
# enterovirus = assay: virological efficacy: EV culture and PCR in neonates with suspected enterovirus sepsis, placebo-controlled study; format: in vivo, human
# Description: as §3, §4, §5, §6
# Specimens for EV culture and polymerase chain reaction (PCR) were obtained from the oropharynx, rectum, urine, and serum on days 1-5, 7, 10, and 14. Plasma for pharmacokinetic analysis was obtained on day 1 (2, 4, and 8 hours after study drug administration) and days 3 and 7 (prior to and 2 and 4 hours after administration). Hematology and chemistry tests were obtained on study days 1, 3, 5, 7, 10, and 14 and urinalyses on days 1 and 7. Persisting abnormalities were followed at visits at 2, 6, 12, 18, and 24 months. Adverse events were recorded at each evaluation, and relationship to study treatment was determined by site investigators.
# as §7, with “Tertiary endpoints included duration of blood product (fresh frozen plasma, packed red blood cells, platelets, other products) and inotropic support.” left out
compound,measurement,setting,value
"Cc1cc(CCCOc2c(C)cc(-c3noc(C(F)(F)F)n3)cc2C)on1 [Pleconaril, 3-{3,5-dimethyl-4-[3-(3-methylisoxazol-5-yl)propoxy]phenyl}-5-(trifluoromethyl)-1,2,4-oxadiazole]",subjects with adverse events whose events were judged possibly/probably treatment-related,[1]; treatment group v. 18% placebo,3%
same,enrolled subjects who experienced adverse events,[1]; treatment group v. 94% placebo,Eighty-six
same,"cumulative survival v. placebo, EV-confirmed subjects",[2]; over two months,trends in cumulative survival favoring the treatment group
same,"cumulative survival over two months v. placebo, all enrolled subjects",[2]; p=0.02,greater
same,cumulative survival over 18 months v. placebo,"[2]; p=0.07 among all subjects, p=0.23 among EV-confirmed subjects",continued to exceed
same,"subjects who died, EV-confirmed subjects",[2]; treatment group 7/31 v. placebo 5/12 (42%),23%
same,"subjects who died, all enrolled subjects",[2]; treatment group 10/43 v. placebo 8/18 (44%),23%
same,clinical/antiviral effect of nasal spray compared with oral dose,[3],roughly similar clinical/antiviral effect
same,induction of CYP 3A (side effect),CYP 3A,induction of CYP 3A
same,solubility in water,[4],< 0.02 µg/mL
same,share with concentrations below IC90,[5],41%
same,EV-confirmed subjects culture-positive from the oropharynx,"enterovirus; day 1, treatment group, 6 of 24",25%
same,subjects shedding cultivable virus from the oropharynx,enterovirus; day 5 (primary endpoint),no subjects
same,"persistence of PCR positivity from OP, compared with placebo","enterovirus; oropharynx, pleconaril group v. placebo",shorter
same,"time to culture negativity of all sites combined, compared with placebo",enterovirus; pleconaril group v. placebo,shorter
same,median time to culture-negativity from all sites among culture-positive subjects,"enterovirus; treatment group (19 subjects) v. 7.0 days placebo, p=0.08",4.0 days
same,"median time to sustained culture-negativity, urine","enterovirus; treatment group v. 7.0 days placebo, p=0.05",4.0 days
same,median time to sustained oropharyngeal culture negativity,"enterovirus; treatment group, placebo also 3.0",3.0 days
